pIC50: −log10 of the molar value.
Columns and labels:
Type in all cases: cell-based, human
[1] = tested on: HepG2 cells; assay: MTT cell viability / IC50 in growth media; conditions: 30 μM to 30 nM
Procedure: The cytotoxic effects of the synthesized drugs on the HepG2 cells were tested by MTT (Thiazolyl Blue Tetrazolium Bromide) method. HepG2 cells were seeded 2×10^4 cells per well in 96-well plate in 200 μL growth media. […] After the incubation period, 5 mg/ml MTT (M2128, Sigma-Aldrich) solution in PBS (10 μL) was added to each well. After 1 hr, the MTT solution and all media were removed from the wells. 100 μl of DMSO was added and mixed to dissolve the formazan crystals. Cell viability was analysed by measuring the absorbance of the dissolved formazan in a microplate reader at a wavelength of 570 nm with microplate reader (Hidex Sense Beta Plus).
HepG2 cells were maintained and used with RPMI 1640 (R2405, Sigma-Aldrich) supplemented with 10% fetal bovine serum (F7524, Sigma-Aldrich), 1% P/S (P4333, Sigma-Aldrich). 20,000 cells per well of HepG2 cells were seeded into a 96-well plate and triplicated for MTT assay and LDH assay. Cell viability was measured by MTT assay (M6494, ThermoFisher) and cytotoxicity was measured by LDH assay kit (ab65393, abcam) by following manufacturer's instructions. Optical density (O.D) was numerated using a microplate reader (Hidex Sense Meta Plus).

[2] = tested on: HepG2 cells; assay: FACs analysis with PI staining (cell cycle)
Procedure: 400,000 HepG2 cells were seeded in a 6-well plated and treated with 10 μM of the compounds for 2 days. Cells were fixed with 70% ethanol and stained with 50 μg/ml PI. Prepared cells were analysed using BD FACS Canto II Flow Cytometry system at PE-A channel 10,000 cells per group. The data was histogram plotted with BD FACSDiva 9.0.

[3] = tested on: HepG2 cells; assay: Mitochondrial membrane potential assay (TMRE); conditions: 10 μM, one day
Procedure: HepG2 cells were seeded into a 6-well plate at 400,000 cells per well. After treatment with the compounds at desired concentration and time, TMRE (ab113852, abcam), Autophagy (ab139484, abcam), ROS (ab113851, abcam), and Lipid peroxidation (ab243377, abcam) assay were performed according to manufacturer's instructions. Fluorescence images were taken using ZOE™ Fluorescent Cell Imager (Biorad) and ROI of fluorescence intensity was measured and calculated by Image J. For microplate reader florescence assay, 40,000 of HepG2 cells were seeded into a 96-well plate and triplicated. GFP (Ex480 nm, Em530 nm) and RFP (Ex549 nm, Em574 nm) were measured using a microplate reader (Hidex Sense Meta Plus).

N#Cc1c(NC(=O)c2cccc3ccccc23)sc2c1CCCC2 [JNK-IN-5A, N-(3-cyano-4,5,6,7-tetrahydrobenzo[b]thiophen-2-yl)-1-naphthamide]
dose dependence of cell viability [1]: non-dose-dependent, linear reduction in cell viability | pIC50 ([1]; Homo sapiens, 48 h, HepG2, treatment for 2 days): 4.44 | cell cycle distribution / arrest ([2]; PI FACS): significant G2/M cell cycle arrest | Cell population G0/G1 ([2]; PI FACs, 10 μM, 2 days): 22.7 | Cell population G2/M ([2]; PI FACs, 10 μM, 2 days): 67.3 | Cell population S ([2]; PI FACs, 10 μM, 2 days): 4.4 | mitochondrial membrane potential [3]: significantly decreased
